Results from patent US20170246144A1, “METHOD OF PREVENTING OR TREATING SPINOCEREBELLAR ATAXIA BY ADMINISTRATING SILIBININ” (National Taiwan Normal University, priority 2016, published 2017).
Like-named read-outs stand apart in the source and are kept apart here.

Columns and labels:
[1] = system: SH-SY5Y cells; assay: Western blotting of calpain-2 and SBDP after MSG; assay type: cell-based, Human; settings: 15 μM, 100 mM MSG, 6 hours
Description: The levels of calpain-2 and SBDPs were measured by western blotting in 1×10^6 SH-SY5Y cells, wherein the control group (Ctrl) was untreated SH-SY5Y cells or the cells were treated with 100 mM MSG, 100 mM MSG+15 μM SB or 100 mM MSG+10 μM MK801 (MK) for 6 hours. Actin was used as a loading control.
In present embodiment, western blotting was performed to study whether silibinin protects SH-SY5Y cell from apoptosis due to glutamatergic excitotoxicity via calcium-dependent apoptosis pathway.
Calpain-2, a thiol proteinase, is activated by the increases of intracellular free calcium ions and the reduction of Bcl-2 level. The level of SBDPs was elevated by calcium-induced calpain-2 in glutamate-induced cell death. Therefore, calpain-2 and SBDPs were used as indicators in the present embodiment.
SH-SY5Y cells were treated with silibinin at pre-determined concentrations or 10 μM MK801 for 1 hour followed by the treatment of 100 mM MSG. Western blotting was performed to analyze the levels of calpain-2 and SBDP.

[2] = system: SH-SY5Y cells; assay: Western blotting of Bax and Bcl-2 after MSG; assay type: cell-based, Human; settings: 15 μM, 100 mM MSG, 6 hours
Description: The levels of Bax and Bcl-2 in 1×10^6 SH-SY5Y cells were measured by western blotting, wherein the control group (Ctrl) was untreated SH-SY5Y cells or the cells were treated with 100 mM MSG, 100 mM MSG+15 μM SB or 100 mM MSG+10 μM MK801 (MK) for 6 hours. Actin was used as a loading control.
In present embodiment, western blotting was performed to study whether silibinin protects SH-SY5Y cell from apoptosis due to glutamatergic excitotoxicity via mitochondria-dependent apoptosis pathway.
It is known that the reduction of Bcl-2 level and the increases of Bax level are related to the increases of free calcium ion in cytosol. Bcl-2 is a cell-survival protein and Bax is a pro-apoptotic protein and they both mediate the releases of cytochrome C from mitochondria. Therefore, Bcl-2 and Bax are used as indicators in the present embodiment.

[3] = system: nTBP/Q79-EGFP cells; assay: Western blotting of caspase family proteins in Dox-induced nTBP/Q79-EGFP cells; assay type: cell-based; settings: Homo sapiens, 120 h, Dox 5 days
Description: FIGS. 8A-8C show the effects of SB on improving the viability of nTBP/Q79-EGFP cells and inhibiting the expression levels of cleaved caspase-9, cleaved caspase-3, and cleaved PARP in nTBP/Q79-EGFP cells induced by doxycycline (Dox). FIG. 8A: The viabilities of 1.0×10^6 nTBP/Q36-EGFP cells and nTBP/Q79-EGFP cells which were pretreated with 15 μM SB for 1 hour followed by the induction of Dox for 1, 3, and 5 days were measured by MTT assay. FIG. 8B: 1.0×10^6 nTBP/Q36-EGFP cells and nTBP/Q79-EGFP cells were pretreated with 15 μM SB for 1 hour followed by the induction of Dox for 5 days. The levels of cleaved caspase-9, cleaved caspase-3, and cleaved PARP were detected by western blotting. Actin was used as a loading control. […] The results were shown as mean±SD, n=3, *p<0.05, comparing to the Dox group.
Western blotting was used to determine whether silibinin can inhibit cell death due to the expression of nTBP/Q79-EGFP via caspase-dependent apoptosis pathway.
nTBP/Q36-EGFP cells and nTBP/Q79-EGFP cells were treated with 15 μM silibinin for 1 hour followed by the treatment of 10 μg/mL Dox and RA for 5 days.

[4] = Body weight of SCA17 transgenic mice; assay type: in vivo; settings: 4.5 mg/kg i.p. once every 2 days, 10 to 20 weeks old
Description: (§1) FIGS. 10A-10F show the effects of SB on the body weight and motor performance in SCA17 transgenic mice. Mice were grouped into wild type-saline (WT-saline), transgenic-saline (TG-saline), and transgenic-SB treatment (TG-SB) groups. Mice were injected intraperitoneally with saline or SB (4.5 mg/kg) at 8-week old once every 2 days. […] FIG. 10E and FIG. 10F show respectively the stride length of front-limb/hind-limb at the right-side and the left-side. The values represent means±SD, n=6. *p<0.05, comparing to the TG-saline group.
In order to understand the efficacy of silibinin in treating SCA17 in vivo, SCA17 transgenic mice (referring as SCA17 mice hereinafter) were used, which were kindly provided by Dr. Hsiu-Mei Hsieh in NTNU.
The mice were housed individually in ventilated cages with a 12-hour light/dark cycle. All mice were maintained in the animal facility in NTNU under specific pathogen-free conditions in accordance with institutional guidelines of the Animal Care and Use Committee at NTNU. The experimental animals were used for motor behavioral assessments, footprint test and the protein aggregation analysis in cerebellum.
(§2) Since the SCA17 mice were 8 weeks old, the mice were injected intraperitoneally with silibinin in saline at 4.5 mg/kg once every 2 days, designated as TG_SB group. The mice in TG_saline group were injected with same amount of saline.

[5] = system: SCA17 transgenic mice; assay: Rotarod test in SCA17 transgenic mice; assay type: in vivo; settings: 4.5 mg/kg i.p. once every 2 days from 8 weeks old
Description: as §1, §2
At the 10th week, the rotarod test was performed to measure the motor coordination of the mice. The mice were trained prior to drug treatment. The mouse was placed on the rotarod with acceleration from 2 to 20 rpm for 5 minutes maintaining at 20 rpm for 5 more minutes to establish the baseline of the behavior of the mouse.
The condition was maintained at a linear acceleration from 4 to 30 rpm within 5 minutes during the testing period. The rotarod test was performed once every 2 weeks, since the mouse was 10 weeks old till 20 weeks old. […] The latency of fall was recorded. […]

[6] = system: SCA17 transgenic mice; assay: Footprint pattern analysis in SCA17 transgenic mice; assay type: in vivo; settings: 4.5 mg/kg i.p. once every 2 days
Description: as §1, §2
In addition, footprint pattern analysis was conducted to observe any abnormity of the gait of the mice. Such test was conducted widely to determine motor skill, coordination and balance. The hindfeet and forefeet of the mouse were coated with red and blue nontoxic paint respectively, and the mouse was allowed to walk along a runway on a fresh sheet of white paper. The distance between the centers of the hind footprint and the fore footprint, the length of the step, and the parallel distance were measured for a continuous 6 steps, excluding the steps in the beginning and at the end. The test was performed once every half month.

For `COc1cc(C2Oc3cc([C@H]4Oc5cc(O)cc(O)c5C(=O)[C@@H]4O)ccc3OC2CO)ccc1O` (some centres unmarked) [silibinin], the “reduction of SBDP level, compared to the increased level with MSG only” value [1] was 250%, the “reduction of calpain-2 level, compared to the increased level with MSG only” value [1] was 200% and the “increase of Bcl-2 level, compared to MSG only” value [2] was “approximately 167%”. For the same compound, the “reduction of Bax level, compared to MSG only” value [2] was 80%, the inhibition at 15 µM ([3]; read-out: inhibition of cleaved-PARP level) was roughly 44% and the inhibition at 15 µM ([3]; read-out: inhibition of cleaved-caspase-3 level) was roughly 100%. The inhibition at 15 µM ([3]; read-out: inhibition of cleaved-caspase-9 level) was roughly 88%, the “body weight compared to WT_saline group” value [4] was “no significant differences” and the “average time of the latency of fall, rotarod” value [5] was 393 ± 36 s. For the same compound, the “overlapped length of footprints, left-paw” value [6] was 0.8±0.1 cm and the “overlapped length of footprints, right-paw” value [6] was 1.1±0.1 cm.
